Reference: US20100003217A1, “Compounds and Pharmaceutical Compositions for the Treatment of Viral Infections” (priority 2008, published 2010)
Like-named read-outs stand apart in the source and are kept apart here.

Key:
[1] = Metabolite profile in rat liver; type: in vivo, male Sprague-Dawley rats; conditions: for Percent of Dose, Liver 24 h: after [14C]Compound 1; for concentration at 2 h / concentration at 6 h / concentration at 24 h: male, Sprague-Dawley, rat, liver
Experimental: Homogenates were prepared on dry ice in 70% methanol-30% water containing 20 mM EDTA and 20 mM EGTA (about 1× (w/v) weight of the liver) and were stored frozen. Pooled liver samples were prepared for all groups by combining a fixed percentage of the total weight of each individual animal sample homogenate for each group. Each pooled liver homogenate (3.77-5.02 g) was placed in a 50-mL polypropylene centrifuge tube and 16.0 mL of methanol:water (70:30) was added. The sample was vortexed for one minute, and then centrifuged at 11200×g for 20 minutes. The supernatant was transferred to a tube and total volume was measured. The extraction procedure was repeated three additional times. Radioactivity of each supernatant was determined by LSC of duplicate aliquots (100 μL each) for extraction recovery. Subsamples of all four extracts from each sample were taken for proportionate pooling. For Group 1, the subsamples were pooled before concentration and, for Group 2, each subsample was concentrated separately and then pooled due to the larger volumes involved. Each extract was completely dried or reduced to approximately 100 μL. Reconstitution was accomplished with methanol (20 μL) and sufficient volume of the aqueous mobile phase of HPLC method 2 such that the total volume of each reconstituted sample was 500 μL. Duplicate aliquots of the reconstituted samples were analyzed by LSC. Each sample was analyzed by HPLC method 2.
(§1) Percent of the administered dose (% AD) for parent drug and each metabolite at each collection period=(% of the total radioactivity in the sample attributed to the metabolite)*(total radioactivity expressed as % of the administered dose, recovered during the corresponding collection period).
Microgram equivalents/g for parent drug or metabolite at each collection period (% radioactivity for each metabolite)*(total μg equivalents/g during the corresponding collection period).
Liver homogenates were pooled for each time point for both dose groups by proportional mixing according to the weight of the samples from individual animals. The pooled samples were extracted and prepared for HPLC analysis as described above. The abundance of metabolites was determined as a % of the administered dose and as μg equivalent/g. The data are presented in Table 54, Table 55, Table 56 and Table 57, respectively. Metabolites R^1, R^8 and R^9 were characterized based on retention time.

[2] = Excretion of administered dose in rat urine and feces; type: in vivo, male Sprague-Dawley rats; conditions: for Percent of Dose, Total (urine, feces and liver): Oral, 24 h after [14C]Compound 1; for Total excretion (urine + feces), % of the administered dose: rat
Experimental: Isotopically diluted [^14C]-Compound 1 was administered intravenously to male Sprague-Dawley rats at 50 mg/kg or by oral gavage at 100 mg/kg.
as §1
The urine and feces of each animal were analyzed for radiolabel content.

[3] = group 1 (IV dose) pooled liver, 2 h
[4] = group 1 (IV dose) pooled liver, 2 h (Table 56)
[5] = group 1 (IV dose) pooled liver, 6 h
[6] = group 1 (IV dose) pooled liver, 6 h (Table 56)
[7] = group 1 (IV dose) pooled liver, 24 h
[8] = group 1 (IV dose) pooled liver, 24 h (Table 56)
[9] = group 2 (PO dose) pooled liver, 2 h
[10] = group 2 (PO dose) pooled liver, 2 h (Table 57)
[11] = group 2 (PO dose) pooled liver, 6 h
[12] = group 2 (PO dose) pooled liver, 6 h (Table 57)
[13] = group 2 (PO dose) pooled liver, 24 h
[14] = group 2 (PO dose) pooled liver, 24 h (Table 57)
[15] = iv, 50 mg/kg, group 1 (IV dose) pooled liver, 2 h, read-out: liver concentration as μg equivalents/g
[16] = iv, 50 mg/kg, group 1 (IV dose) pooled liver, 6 h, read-out: liver concentration as μg equivalents/g
[17] = iv, 50 mg/kg, group 1 (IV dose) pooled liver, 24 h, read-out: liver concentration as μg equivalents/g
[18] = po, 100 mg/kg, group 2 (PO dose) pooled liver, 2 h, read-out: liver concentration as μg equivalents/g
[19] = po, 100 mg/kg, group 2 (PO dose) pooled liver, 6 h, read-out: liver concentration as μg equivalents/g
[20] = po, 100 mg/kg, group 2 (PO dose) pooled liver, 24 h, read-out: liver concentration as μg equivalents/g
[21] = rat liver, IV dose, 2, 6 and 24 h
[22] = rat liver, PO dose, 2, 6 and 24 h

## C[C@@]1(O)[C@H](O)[C@@H](CO)O[C@H]1n1cnc2c(=O)[nH]c(N)nc21 [2′-C-methyl guanosine, 9-(2-C-methyl-β-D-ribofuranosyl)guanine, reference compound]
[1]; IV
  Percent of Dose, Liver 24 h: 0.42% of Dose
[1]; Oral
  Percent of Dose, Liver 24 h: 0.09% of Dose
[1]; [3]
  % AD: 2.14 % AD
  % HPLC (percent of HPLC peak area in the sample extract): 13.8%
[1]; [4]
  % HPLC (percent of HPLC peak area in the sample extract): 13.8%
[1]; [5]
  % AD: 1.48 % AD
  % HPLC (percent of HPLC peak area in the sample extract): 14.6%
[1]; [6]
  % HPLC (percent of HPLC peak area in the sample extract): 14.6%
[1]; [7]
  % AD: 0.42 % AD
  % HPLC (percent of HPLC peak area in the sample extract): 23.9%
[1]; [8]
  % HPLC (percent of HPLC peak area in the sample extract): 23.9%
[1]; [9]
  % AD: 0.15 % AD
  % HPLC (percent of HPLC peak area in the sample extract): 77.5%
[1]; [10]
  % HPLC (percent of HPLC peak area in the sample extract): 77.5%
[1]; [11]
  % AD: 0.32 % AD
  % HPLC (percent of HPLC peak area in the sample extract): 85.0%
[1]; [12]
  % HPLC (percent of HPLC peak area in the sample extract): 85.0%
[1]; [13]
  % AD: 0.09 % AD
  % HPLC (percent of HPLC peak area in the sample extract): 53.9%
[1]; [14]
  % HPLC (percent of HPLC peak area in the sample extract): 53.9%
[1]; [15]
  concentration at 2 h: 28400 ng/g
[1]; [16]
  concentration at 6 h: 20000 ng/g
[1]; [17]
  concentration at 24 h: 5560 ng/g
[1]; [18]
  concentration at 2 h: 3940 ng/g
[1]; [19]
  concentration at 6 h: 8760 ng/g
[1]; [20]
  concentration at 24 h: 2200 ng/g
[1]; [21]
  % of the total radioactivity in liver: 14-24%
[1]; [22]
  % of the total radioactivity in liver: 54-85%
[2]; IV (1C)
  Total excretion (% AD), total (urine + feces): 34.0 % AD
[2]
  Percent of Dose, Total (urine, feces and liver): 28.3% of Dose
[2]; PO (2C), urine data estimated
  Total excretion (% AD), total (urine + feces): 28.2 % AD
[2]; IV dose
  Total excretion (urine + feces), % of the administered dose: 34.0%
[2]; PO dose
  Total excretion (urine + feces), % of the administered dose: 28.2%

## C[C@@]1(O)[C@H](O)[C@@H](COP(=O)(O)OP(=O)(O)O)O[C@H]1n1cnc2c(=O)[nH]c(N)nc21 [Compound 6, [(2R)-2-methyl-β-D-ribofuranosyl]guanine 5′-diphosphate]
[1]; IV
  Percent of Dose, Liver 24 h: 0.29% of Dose
[1]; Oral
  Percent of Dose, Liver 24 h: 0.08% of Dose
[1]; [3]
  % AD: 3.35 % AD
  % HPLC (percent of HPLC peak area in the sample extract): 21.6%
[1]; [4]
  % HPLC (percent of HPLC peak area in the sample extract): 21.6%
[1]; [5]
  % AD: 2.04 % AD
  % HPLC (percent of HPLC peak area in the sample extract): 20.1%
[1]; [6]
  % HPLC (percent of HPLC peak area in the sample extract): 20.1%
[1]; [7]
  % AD: 0.29 % AD
  % HPLC (percent of HPLC peak area in the sample extract): 16.2%
[1]; [8]
  % HPLC (percent of HPLC peak area in the sample extract): 16.2%
[1]; [9]
  % AD: 0.04 % AD
  % HPLC (percent of HPLC peak area in the sample extract): 22.6%
[1]; [10]
  % HPLC (percent of HPLC peak area in the sample extract): 22.6%
[1]; [11]
  % AD: 0.06 % AD
  % HPLC (percent of HPLC peak area in the sample extract): 15.0%
[1]; [12]
  % HPLC (percent of HPLC peak area in the sample extract): 15.0%
[1]; [13]
  % AD: 0.08 % AD
  % HPLC (percent of HPLC peak area in the sample extract): 46.1%
[1]; [14]
  % HPLC (percent of HPLC peak area in the sample extract): 46.1%
[1]; [15]
  concentration at 2 h: 44400 ng/g
[1]; [16]
  concentration at 6 h: 27500 ng/g
[1]; [17]
  concentration at 24 h: 3770 ng/g
[1]; [18]
  concentration at 2 h: 1150 ng/g
[1]; [19]
  concentration at 6 h: 1550 ng/g
[1]; [20]
  concentration at 24 h: 1880 ng/g
[1]; po, 100 mg/kg, rat liver, PO dose, 2 h, read-out: liver metabolite concentration
  concentration at 2 h: 1100 ng/g
[1]; po, 100 mg/kg, rat liver, PO dose, 6 h, read-out: liver metabolite concentration
  concentration at 6 h: 1600 ng/g
[1]; po, 100 mg/kg, rat liver, PO dose, 24 h, read-out: liver metabolite concentration
  concentration at 24 h: 1900 ng/g
[1]; [21]
  % of the total radioactivity in liver: 16-22%
[1]; rat liver, IV dose, 2 h (Group 1A)
  liver metabolite, % of the administered dose: 3.4 % AD
[1]; rat liver, IV dose, 6 h (Group 1B)
  liver metabolite, % of the administered dose: 2.0 % AD
[1]; rat liver, IV dose, 24 h
  liver metabolite, % of the administered dose: 0.29 % AD
[1]; rat liver, IV dose, 24 h, listed as diphosphate
  liver metabolite, % of the administered dose: 0.3 % AD
[1]; [22]
  % of the total radioactivity in liver: 15-46%
[1]; rat liver, PO dose, 2 h
  liver metabolite, % of the administered dose: 0.04 % AD
[1]; rat liver, PO dose, 6 h
  liver metabolite, % of the administered dose: 0.06 % AD
[1]; rat liver, PO dose, 24 h
  liver metabolite, % of the administered dose: 0.08 % AD
[2]
  Percent of Dose, Total (urine, feces and liver): 0.08% of Dose
